In patent US12139520B2 (priority 2020, dated 2024):
Numbered stars: 1 amine (or outer) side, 2 acyl side, 3 side chain; on linkers, the order of the positions; unused ones are H or OH. Bridge positions count the residues as written; N and C are the ends. Square brackets hold non-standard residues; d marks the D form. Side chains are listed from the residue outwards. Peptide text beside a SMILES is read from it. * marks the point of attachment. C20 diacid = O=C(O)CCCCCCCCCCCCCCCCCCC(=O)*; γGlu = O=C(O)[C@H](CCC(=O)[*:2])N[*:1]; Hyp = O=C(O)[C@@H]1C[C@@H](O)CN1; Cit = NC(=O)NCCC[C@H](N)C(=O)O; AEEA = NCCOCCOCC(=O)O

Key:
[1] = target: T1, hAMY3 receptor (Homo sapiens, UniProt O60896+P30988); assay: cAMP assay for in vitro receptor activation, hAMY3-R; type: cell-based; details: cAMP assay, hAMY3 receptor; read-out: hAMY3R EC50
T1 sequence (P30988 25-474): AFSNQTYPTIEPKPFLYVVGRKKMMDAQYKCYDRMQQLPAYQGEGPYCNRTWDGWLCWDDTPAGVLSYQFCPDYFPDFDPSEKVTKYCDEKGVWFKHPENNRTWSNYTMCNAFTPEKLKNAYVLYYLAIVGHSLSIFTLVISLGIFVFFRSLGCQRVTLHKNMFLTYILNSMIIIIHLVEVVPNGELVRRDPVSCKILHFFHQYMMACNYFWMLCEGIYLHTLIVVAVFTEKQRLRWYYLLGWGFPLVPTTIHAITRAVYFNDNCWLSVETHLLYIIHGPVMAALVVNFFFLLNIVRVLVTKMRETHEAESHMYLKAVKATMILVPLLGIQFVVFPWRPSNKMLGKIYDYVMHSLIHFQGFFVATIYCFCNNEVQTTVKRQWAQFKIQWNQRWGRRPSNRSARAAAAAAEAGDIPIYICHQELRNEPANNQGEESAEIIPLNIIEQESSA
T1 sequence (O60896 24-148 partner): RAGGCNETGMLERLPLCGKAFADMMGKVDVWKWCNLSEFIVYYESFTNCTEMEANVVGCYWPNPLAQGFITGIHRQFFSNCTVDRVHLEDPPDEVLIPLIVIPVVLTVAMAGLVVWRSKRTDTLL
Procedure, shortened: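 Thawed cells from a sub-cloned monoclonal hAMY3-overexpressing line are plated in DPBS containing 0.05% casein and 0.5 mM IBMX. Test compounds are added immediately at graded doses for 30 min at room temperature. Reagents for cAMP detection are then added, and TR-FRET is recorded after one hour.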

[2] = target: hAM1 receptor (Homo sapiens, UniProt O60895+Q16602); assay: cAMP assay for in vitro receptor activation, hAM1-R; type: cell-based; details: cAMP assay, hAM1 receptor; read-out: hAM1R EC50
Procedure, shortened: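 cAMP accumulation was measured in a monoclonal cell line stably overexpressing the hAM1 receptor. Frozen aliquots were thawed and plated at 8000 cells/well in DPBS containing 0.05% casein and 0.5 mM IBMX.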

Chain of hAM1 receptor (Q16602 23-461): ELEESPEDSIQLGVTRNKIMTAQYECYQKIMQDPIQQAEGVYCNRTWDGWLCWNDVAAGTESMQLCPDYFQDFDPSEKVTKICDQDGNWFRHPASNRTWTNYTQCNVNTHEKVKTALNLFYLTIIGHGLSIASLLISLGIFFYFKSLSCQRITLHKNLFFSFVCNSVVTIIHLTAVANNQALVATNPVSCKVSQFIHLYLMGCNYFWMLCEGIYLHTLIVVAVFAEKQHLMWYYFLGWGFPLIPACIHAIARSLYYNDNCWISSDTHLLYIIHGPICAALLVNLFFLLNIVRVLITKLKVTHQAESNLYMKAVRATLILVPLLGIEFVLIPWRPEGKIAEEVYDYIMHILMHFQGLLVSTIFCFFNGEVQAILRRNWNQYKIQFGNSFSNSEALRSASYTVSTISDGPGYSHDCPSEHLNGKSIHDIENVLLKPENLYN
Chain of hAM1 receptor (O60895 43-175 partner): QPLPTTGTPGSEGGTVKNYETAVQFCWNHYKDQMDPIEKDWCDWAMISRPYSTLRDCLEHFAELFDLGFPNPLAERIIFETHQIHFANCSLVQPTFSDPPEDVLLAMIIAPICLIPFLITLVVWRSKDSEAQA

EC50 [1] | EC50 [2] | Structure (SMILES)
0.041 nM | > 5 µM | CC[C@H](C)[C@H](NC(=O)[C@H](CCC(N)=O)NC(=O)[C@H](CCC(=O)O)NC(=O)[C@H](C)NC(=O)[C@H](CC(C)C)NC(=O)[C@H](CCCNC(N)=O)NC(=O)[C@H](CCC(N)=O)NC(=O)[C@@H](NC(=O)[C@@H](NC(=O)[C@@H]1CSSC[C@H](NC(=O)[C@H](CCCCN)NC(=O)CC[C@H](NC(=O)CCCCCCCCCCCCCCCCCCC(=O)O)C(=O)O)C(=O)N[C@@H](CC(N)=O)C(=O)N[C@@H]([C@@H](C)O)C(=O)N[C@@H](C)C(=O)N[C@@H]([C@@H](C)O)C(=O)N1)[C@@H](C)O)C(C)C)C(=O)N[C@@H](C)C(=O)N[C@@H](CCC(N)=O)C(=O)N[C@@H](Cc1ccccc1)C(=O)N[C@H](C(=O)N[C@@H](CC(=O)O)C(=O)N[C@@H](CCCCN)C(=O)N[C@@H](CC(=O)O)C(=O)N[C@@H](CCCCN)C(=O)N[C@@H](CC(=O)O)C(=O)N[C@@H](CC(N)=O)C(=O)N[C@H](C(=O)N[C@@H](C)C(=O)N1CCC[C@H]1C(=O)N1CCC[C@H]1C(=O)N[C@H](C(=O)N[C@@H](CC(N)=O)C(=O)N[C@H](C(=O)NCC(=O)N[C@@H](CO)C(=O)N[C@@H](CC(N)=O)C(=O)NCC(=O)N1C[C@H](O)C[C@H]1C(N)=O)C(C)C)[C@@H](C)O)C(C)C)[C@@H](C)O [compound 153] ({C20 diacid-γGlu}-KCNTATCTVQ[Cit]LAEQIAQFTDKDKDNVAPPTNVGSNG[Hyp]-NH2; disulfide 2-7)
0.082 nM | > 5 µM | CC[C@H](C)[C@H](NC(=O)[C@H](C)NC(=O)CNC(=O)[C@H](Cc1ccccc1)NC(=O)[C@H](CC(N)=O)NC(=O)[C@H](CC(N)=O)NC(=O)[C@H](CO)NC(=O)[C@H](CO)NC(=O)[C@H](Cc1c[nH]cn1)NC(=O)[C@@H](NC(=O)[C@H](CC(C)C)NC(=O)[C@H](Cc1ccccc1)NC(=O)[C@H](CC(N)=O)NC(=O)[C@H](C)NC(=O)[C@H](CC(C)C)NC(=O)[C@H](CCCNC(=N)N)NC(=O)[C@H](CCC(N)=O)NC(=O)[C@@H](NC(=O)[C@H](C)NC(=O)[C@@H]1CSSC[C@H](NC(=O)[C@@H](N)CCCCN)C(=O)N[C@@H](CC(N)=O)C(=O)N[C@@H]([C@@H](C)O)C(=O)N[C@@H](C)C(=O)N[C@@H]([C@@H](C)O)C(=O)N1)[C@@H](C)O)C(C)C)C(=O)N[C@@H](CC(C)C)C(=O)N1CCC[C@H]1C(=O)N[C@@H](CO)C(=O)N[C@H](C(=O)N[C@@H](CCCCN)C(=O)N[C@H](C(=O)NCC(=O)N[C@@H](CO)C(=O)N[C@@H](CC(N)=O)C(=O)N[C@H](C(=O)N[C@@H](Cc1ccc(O)cc1)C(N)=O)[C@@H](C)O)[C@@H](C)CC)[C@@H](C)O [compound 180] (H-KCNTATCATQRLANFLVHSSNNFGAILPSTKIGSNTY-NH2; disulfide 2-7; N-terminus assumed)
0.018 nM | > 5 µM | CC[C@H](C)[C@H](NC(=O)[C@H](CCC(N)=O)NC(=O)[C@H](Cc1c[nH]cn1)NC(=O)[C@H](C)NC(=O)[C@H](CC(C)C)NC(=O)[C@H](CCCNC(=N)N)NC(=O)[C@H](CCC(N)=O)NC(=O)[C@@H](NC(=O)[C@@H](NC(=O)[C@@H]1CSSC[C@H](NC(=O)[C@H](CCCCN)NC(=O)CC[C@H](NC(=O)CCCCCCCCCCCCCCCCCCC(=O)O)C(=O)O)C(=O)N[C@@H](CC(N)=O)C(=O)N[C@@H]([C@@H](C)O)C(=O)N[C@@H](C)C(=O)N[C@@H]([C@@H](C)O)C(=O)N1)[C@@H](C)O)C(C)C)C(=O)N[C@@H](C)C(=O)N[C@@H](CCC(N)=O)C(=O)N[C@@H](Cc1ccccc1)C(=O)N[C@@H](C)C(=O)N[C@@H](CC(=O)O)C(=O)N[C@@H](CCCCN)C(=O)N[C@@H](CC(=O)O)C(=O)N[C@@H](CCCCN)C(=O)N[C@@H](CC(=O)O)C(=O)N[C@@H](CC(N)=O)C(=O)N[C@H](C(=O)N[C@@H](C)C(=O)N1CCC[C@H]1C(=O)N1CCC[C@H]1C(=O)N[C@H](C(=O)N[C@@H](CC(N)=O)C(=O)N[C@H](C(=O)NCC(=O)N[C@@H](CO)C(=O)N[C@@H](CC(N)=O)C(=O)NCC(=O)N1C[C@H](O)C[C@H]1C(N)=O)C(C)C)[C@@H](C)O)C(C)C [compound 105] ({C20 diacid-γGlu}-KCNTATCTVQRLAHQIAQFADKDKDNVAPPTNVGSNG[Hyp]-NH2; disulfide 2-7)
0.01 nM | > 5 µM | CC[C@H](C)[C@H](NC(=O)[C@H](CCC(N)=O)NC(=O)[C@H](CCC(=O)O)NC(=O)[C@H](C)NC(=O)[C@H](CC(C)C)NC(=O)[C@H](CCCNC(=N)N)NC(=O)[C@H](CCC(N)=O)NC(=O)[C@@H](NC(=O)[C@@H](NC(=O)[C@@H]1CSSC[C@H](NC(=O)[C@@H](N)CCCCN)C(=O)N[C@@H](CC(N)=O)C(=O)N[C@@H]([C@@H](C)O)C(=O)N[C@@H](C)C(=O)N[C@@H]([C@@H](C)O)C(=O)N1)[C@@H](C)O)C(C)C)C(=O)N[C@@H](Cc1ccc(O)cc1)C(=O)N[C@@H](CCC(N)=O)C(=O)N[C@@H](Cc1ccccc1)C(=O)N[C@H](C(=O)N[C@@H](CC(=O)O)C(=O)N[C@@H](CCCCN)C(=O)N[C@@H](CC(=O)O)C(=O)N[C@@H](CCCCN)C(=O)N[C@@H](CC(=O)O)C(=O)N[C@@H](CCCCNC(=O)COCCOCCNC(=O)COCCOCCNC(=O)CC[C@H](NC(=O)CCCCCCCCCCCCCCCCCCC(=O)O)C(=O)O)C(=O)N[C@H](C(=O)N[C@@H](C)C(=O)N1CCC[C@H]1C(=O)N1CCC[C@H]1C(=O)N[C@H](C(=O)N[C@@H](CC(N)=O)C(=O)N[C@H](C(=O)NCC(=O)N[C@@H](CO)C(=O)N[C@@H](CC(N)=O)C(=O)NCC(=O)N1C[C@H](O)C[C@H]1C(N)=O)C(C)C)[C@@H](C)O)C(C)C)[C@@H](C)O [compound 41] (H-KCNTATCTVQRLAEQIYQFTDKDKDK([AEEA-AEEA-γGlu-C20 diacid])VAPPTNVGSNG[Hyp]-NH2; disulfide 2-7; N-terminus assumed)
0.008 nM | > 5 µM | CC[C@H](C)[C@H](NC(=O)[C@H](CCC(N)=O)NC(=O)[C@H](Cc1c[nH]cn1)NC(=O)[C@H](C)NC(=O)[C@H](CC(C)C)NC(=O)[C@H](CCCNC(=N)N)NC(=O)[C@H](CCC(N)=O)NC(=O)[C@@H](NC(=O)[C@@H](NC(=O)[C@@H]1CSSC[C@H](NC(=O)[C@@H](N)CCCCN)C(=O)N[C@@H](CC(N)=O)C(=O)N[C@@H]([C@@H](C)O)C(=O)N[C@@H](C)C(=O)N[C@@H]([C@@H](C)O)C(=O)N1)[C@@H](C)O)C(C)C)C(=O)N[C@@H](Cc1ccc(O)cc1)C(=O)N[C@@H](CCC(N)=O)C(=O)N[C@@H](Cc1ccccc1)C(=O)N[C@H](C(=O)N[C@@H](CC(=O)O)C(=O)N[C@@H](CCCCN)C(=O)N[C@@H](CC(=O)O)C(=O)N[C@@H](CCCCN)C(=O)N[C@@H](CC(=O)O)C(=O)N[C@@H](CC(N)=O)C(=O)N[C@H](C(=O)N1CCC[C@H]1C(=O)N1CCC[C@H]1C(=O)N[C@H](C(=O)N[C@@H](CC(N)=O)C(=O)N[C@H](C(=O)NCC(=O)N[C@@H](CO)C(=O)N[C@@H](CC(N)=O)C(=O)NCC(=O)N1C[C@H](O)C[C@H]1C(N)=O)C(C)C)[C@@H](C)O)C(C)C)[C@@H](C)O [compound 30] (H-KCNTATCTVQRLAHQIYQFTDKDKDNVPPTNVGSNG[Hyp]-NH2; disulfide 2-7; N-terminus assumed)
